Source: patent publication EP4596574A1, “GLP-1/GCG/GIP TRIPLE-RECEPTOR AGONIST AND USE THEREOF” (Sunshine Lake Pharma Co., Ltd., priority 2022, dated 2024)
Starred links: 1 amine or outer side, 2 acyl side, 3 side chain; linkers in the order of their positions; H or OH if unused. Non-standard residues stand in square brackets, D forms with d. Residues, ends and D or L forms follow the SMILES beside them. Groups on a side chain read outwards from the residue. *: point of attachment. C18 diacid = O=C(O)CCCCCCCCCCCCCCCCC(=O)*; αMePhe(2-F) = C[C@](N)(Cc1ccccc1F)C(=O)O; γGlu = O=C(O)[C@H](CCC(=O)[*:2])N[*:1]; AEEA = NCCOCCOCC(=O)O; Aib = CC(C)(N)C(=O)O

Key:
Format in all cases: cell-based
GLP-1R = target: T1, GLP-1R (Homo sapiens, UniProt P43220); test: In vitro cell activity, cAMP production in HEK293 cells expressing GLP-1R; conditions: HEK293-GLP-1R cells, cAMP; read-out: GLP-1R (EC50)
T1 construct: expressed in transfected cells; host or cells: HEK293 (HEK293-GLP-1R)
T1 sequence (P43220 24-463, species assumed): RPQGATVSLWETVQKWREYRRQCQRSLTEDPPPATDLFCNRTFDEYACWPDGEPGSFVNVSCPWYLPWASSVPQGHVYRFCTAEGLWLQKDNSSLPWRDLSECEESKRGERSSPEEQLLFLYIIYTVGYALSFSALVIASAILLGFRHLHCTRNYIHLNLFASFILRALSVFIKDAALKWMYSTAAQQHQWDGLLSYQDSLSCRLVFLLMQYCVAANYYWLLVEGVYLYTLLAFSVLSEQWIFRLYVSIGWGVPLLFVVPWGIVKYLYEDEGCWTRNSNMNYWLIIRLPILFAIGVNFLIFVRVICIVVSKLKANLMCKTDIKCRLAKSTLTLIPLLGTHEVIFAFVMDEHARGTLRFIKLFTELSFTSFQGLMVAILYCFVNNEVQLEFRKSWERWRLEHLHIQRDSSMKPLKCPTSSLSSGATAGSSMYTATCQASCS
Procedure, shortened: (§1)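 Assay format: cells at 4×10^5 cells/mL, cAMP sensed by d2/cryptate FRET pair, dual-wavelength read at 665 and 620 nm. Potency expressed as EC50 from nonlinear fitting.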

GCGR = target: T2, GCGR (Homo sapiens, UniProt P47871); test: In vitro cell activity, cAMP production in HEK293 cells expressing GCGR; conditions: HEK293-GCGR cells, cAMP; read-out: GCGR (EC50)
T2 construct: expressed in transfected cells; host or cells: HEK293 (HEK293-GCGR)
T2 sequence (P47871 26-477, species assumed): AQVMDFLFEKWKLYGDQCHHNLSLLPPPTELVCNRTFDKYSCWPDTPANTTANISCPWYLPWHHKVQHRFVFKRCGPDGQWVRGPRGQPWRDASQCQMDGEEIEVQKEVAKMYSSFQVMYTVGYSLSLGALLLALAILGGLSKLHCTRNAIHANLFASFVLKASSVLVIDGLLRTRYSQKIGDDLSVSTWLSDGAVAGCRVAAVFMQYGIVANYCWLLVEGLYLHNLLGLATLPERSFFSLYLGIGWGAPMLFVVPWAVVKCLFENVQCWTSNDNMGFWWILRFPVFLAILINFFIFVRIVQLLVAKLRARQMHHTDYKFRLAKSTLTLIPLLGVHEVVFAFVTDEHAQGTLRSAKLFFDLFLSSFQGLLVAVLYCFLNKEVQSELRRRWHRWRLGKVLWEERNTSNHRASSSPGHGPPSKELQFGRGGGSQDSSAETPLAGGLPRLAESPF
Procedure, shortened: as §1

GIPR = target: T3, GIPR (Homo sapiens, UniProt P48546); test: In vitro cell activity, cAMP production in HEK293 cells expressing GIPR; conditions: HEK293-GIPR cells, cAMP; read-out: GIPR (EC50)
T3 construct: expressed in transfected cells; host or cells: HEK293 (HEK293-GIPR)
T3 sequence (P48546 22-466): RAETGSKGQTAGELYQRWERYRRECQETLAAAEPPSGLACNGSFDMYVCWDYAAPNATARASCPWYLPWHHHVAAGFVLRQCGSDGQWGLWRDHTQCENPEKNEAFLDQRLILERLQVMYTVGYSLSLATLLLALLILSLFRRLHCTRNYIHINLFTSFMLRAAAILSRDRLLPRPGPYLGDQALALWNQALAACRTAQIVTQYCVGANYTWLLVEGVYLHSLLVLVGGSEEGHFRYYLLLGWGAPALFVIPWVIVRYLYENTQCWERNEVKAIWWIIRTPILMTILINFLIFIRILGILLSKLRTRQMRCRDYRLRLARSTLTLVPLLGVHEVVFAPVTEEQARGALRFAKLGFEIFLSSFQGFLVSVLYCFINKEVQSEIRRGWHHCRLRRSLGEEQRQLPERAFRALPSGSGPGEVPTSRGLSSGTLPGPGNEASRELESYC
Procedure, shortened: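 cAMP accumulation is quantified by homogeneous TR-FRET (cAMP-d2 plus anti-cAMP cryptate) in GIPR-expressing HEK293 cells seeded from a 4×10^5 cells/mL suspension and treated with compound. The signal ratio is plotted against concentration and fitted to a four-parameter curve to give EC50.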

Structure (SMILES)	EC50 (GLP-1R)	EC50 (GCGR)	EC50 (GIPR)
CC[C@H](C)[C@H](NC(=O)[C@H](CCC(=O)O)NC(=O)[C@H](CC(=O)O)NC(=O)[C@H](CC(C)C)NC(=O)[C@H](CC(C)C)NC(=O)[C@@H](NC(=O)[C@H](CO)NC(=O)[C@H](Cc1ccc(O)cc1)NC(=O)[C@H](CC(=O)O)NC(=O)[C@H](CO)NC(=O)[C@@H](NC(=O)[C@](C)(Cc1ccccc1F)NC(=O)[C@@H](NC(=O)CNC(=O)[C@H](CCC(N)=O)NC(=O)C(C)(C)NC(=O)[C@@H](N)Cc1ccc(O)cc1)[C@@H](C)O)[C@@H](C)O)[C@@H](C)CC)C(=O)N[C@@H](C)C(=O)N[C@@H](CCC(N)=O)C(=O)N[C@@H](CCCCNC(=O)COCCOCCNC(=O)COCCOCCNC(=O)CC[C@H](NC(=O)CCCCCCCCCCCCCCCCCCC(=O)O)C(=O)O)C(=O)N[C@@H](C)C(=O)N[C@@H](Cc1ccccc1)C(=O)N[C@H](C(=O)N[C@@H](CCC(=O)O)C(=O)N[C@@H](Cc1ccc(O)cc1)C(=O)N[C@@H](CC(C)C)C(=O)N[C@H](C(=O)N[C@@H](C)C(=O)NCC(=O)NCC(=O)N1CCC[C@H]1C(=O)N[C@@H](CO)C(=O)N[C@@H](CO)C(=O)NCC(=O)N[C@@H](C)C(=O)N1CCC[C@H]1C(=O)N1CCC[C@H]1C(=O)N1CCC[C@H]1C(=O)N[C@@H](CO)C(=O)O)[C@@H](C)CC)[C@@H](C)CC [HEC-PT99]	0.278 nM	12.3 nM	0.176 nM
CC[C@H](C)[C@H](NC(=O)[C@H](CCCCN)NC(=O)[C@H](CC(=O)O)NC(=O)[C@H](CCCCNC(=O)COCCOCCNC(=O)CC[C@H](NC(=O)CCCCCCCCCCCCCCCCC(=O)O)C(=O)O)NC(=O)[C@H](CC(C)C)NC(=O)[C@@H](NC(=O)[C@H](CO)NC(=O)[C@H](Cc1ccc(O)cc1)NC(=O)[C@H](CC(=O)O)NC(=O)[C@H](CO)NC(=O)[C@@H](NC(=O)[C@](C)(Cc1ccccc1F)NC(=O)[C@@H](NC(=O)CNC(=O)[C@H](CCC(N)=O)NC(=O)C(C)(C)NC(=O)[C@@H](N)Cc1ccc(O)cc1)[C@@H](C)O)[C@@H](C)O)[C@@H](C)CC)C(=O)N[C@@H](C)C(=O)N[C@@H](CCC(N)=O)C(=O)N[C@@H](CCC(N)=O)C(=O)N[C@@H](C)C(=O)N[C@@H](Cc1ccccc1)C(=O)N[C@H](C(=O)N[C@@H](CCC(=O)O)C(=O)N[C@@H](Cc1ccc(O)cc1)C(=O)N[C@@H](CC(C)C)C(=O)N[C@@H](CC(C)C)C(=O)N[C@@H](C)C(=O)NCC(=O)NCC(=O)N1CCC[C@H]1C(=O)N[C@@H](CO)C(=O)N[C@@H](CO)C(=O)NCC(=O)N[C@@H](C)C(=O)N1CCC[C@H]1C(=O)N1CCC[C@H]1C(=O)N1CCC[C@H]1C(=O)N[C@@H](CO)C(N)=O)[C@@H](C)CC [HEC-PT122] (H-Y[Aib]QGT[αMePhe(2-F)]TSDYSILK([AEEA-γGlu-C18 diacid])DKIAQQAFIEYLLAGGPSSGAPPPS-NH2)	0.0893 nM	0.162 nM	0.0276 nM
CC[C@H](C)[C@H](NC(=O)[C@H](CO)NC(=O)[C@H](Cc1ccc(O)cc1)NC(=O)[C@H](CC(=O)O)NC(=O)[C@H](CO)NC(=O)[C@@H](NC(=O)[C@](C)(Cc1ccccc1F)NC(=O)[C@@H](NC(=O)CNC(=O)[C@H](CCC(N)=O)NC(=O)C(C)(C)NC(=O)[C@@H](N)Cc1ccc(O)cc1)[C@@H](C)O)[C@@H](C)O)C(=O)N[C@@H](CC(C)C)C(=O)N[C@@H](CC(C)C)C(=O)N[C@@H](CC(=O)O)C(=O)N[C@@H](CCC(=O)O)C(=O)N[C@@H](CCCCNC(=O)COCCOCCNC(=O)CC[C@H](NC(=O)CCCCCCCCCCCCCCCCC(=O)O)C(=O)O)C(=O)N[C@@H](CCCNC(=N)N)C(=O)N[C@@H](CCC(N)=O)C(=O)N[C@@H](CCCNC(=N)N)C(=O)N[C@@H](C)C(=O)N[C@@H](Cc1ccccc1)C(=O)N[C@H](C(=O)N[C@@H](CCC(=O)O)C(=O)N[C@@H](Cc1ccc(O)cc1)C(=O)N[C@@H](CC(C)C)C(=O)N[C@@H](CC(C)C)C(=O)N[C@@H](C)C(=O)NCC(=O)NCC(=O)N1CCC[C@H]1C(=O)N[C@@H](CO)C(=O)N[C@@H](CO)C(=O)NCC(=O)N[C@@H](C)C(=O)N1CCC[C@H]1C(=O)N1CCC[C@H]1C(=O)N1CCC[C@H]1C(=O)N[C@@H](CO)C(=O)O)C(C)C [HEC-PT135]	0.19 nM	0.902 nM	0.283 nM
CC[C@H](C)[C@H](NC(=O)[C@H](Cc1ccccc1)NC(=O)[C@H](C)NC(=O)[C@H](CCCNC(=N)N)NC(=O)[C@H](CCC(N)=O)NC(=O)[C@H](C)NC(=O)[C@H](CCCCNC(=O)COCCOCCNC(=O)CC[C@H](NC(=O)CCCCCCCCCCCCCCCCCCC(=O)O)C(=O)O)NC(=O)[C@H](CCC(=O)O)NC(=O)[C@H](CC(=O)O)NC(=O)[C@H](CC(C)C)NC(=O)[C@H](CC(C)C)NC(=O)[C@@H](NC(=O)[C@H](CO)NC(=O)[C@H](Cc1ccc(O)cc1)NC(=O)[C@H](CC(=O)O)NC(=O)[C@H](CO)NC(=O)[C@@H](NC(=O)[C@](C)(Cc1ccccc1F)NC(=O)[C@@H](NC(=O)CNC(=O)[C@H](CCC(N)=O)NC(=O)C(C)(C)NC(=O)[C@@H](N)Cc1ccc(O)cc1)[C@@H](C)O)[C@@H](C)O)[C@@H](C)CC)C(=O)N[C@@H](CCC(=O)O)C(=O)N[C@@H](Cc1ccc(O)cc1)C(=O)N[C@@H](CC(C)C)C(=O)N[C@@H](CC(C)C)C(=O)N[C@@H](C)C(=O)NCC(=O)NCC(=O)N1CCC[C@H]1C(=O)N[C@@H](CO)C(=O)N[C@@H](CO)C(=O)NCC(=O)N[C@@H](C)C(=O)N1CCC[C@H]1C(=O)N1CCC[C@H]1C(=O)N1CCC[C@H]1C(=O)N[C@@H](CO)C(=O)O [HEC-PT95]	0.156 nM	0.682 nM	0.237 nM
CC[C@H](C)[C@H](NC(=O)[C@H](Cc1ccccc1)NC(=O)[C@H](C)NC(=O)C(C)(C)NC(=O)[C@H](CCC(N)=O)NC(=O)[C@H](C)NC(=O)[C@H](CCCCNC(=O)COCCOCCNC(=O)CC[C@H](NC(=O)CCCCCCCCCCCCCCCCC(=O)O)C(=O)O)NC(=O)[C@H](CCC(=O)O)NC(=O)[C@H](CC(=O)O)NC(=O)[C@H](CC(C)C)NC(=O)[C@H](CC(C)C)NC(=O)[C@@H](NC(=O)[C@H](CO)NC(=O)[C@H](Cc1ccc(O)cc1)NC(=O)[C@H](CC(=O)O)NC(=O)[C@H](CO)NC(=O)[C@@H](NC(=O)[C@](C)(Cc1ccccc1F)NC(=O)[C@@H](NC(=O)CNC(=O)[C@H](CCC(N)=O)NC(=O)C(C)(C)NC(=O)[C@@H](N)Cc1ccc(O)cc1)[C@@H](C)O)[C@@H](C)O)[C@@H](C)CC)C(=O)N[C@@H](CCC(=O)O)C(=O)N[C@@H](Cc1ccc(O)cc1)C(=O)N[C@@H](CC(C)C)C(=O)N[C@@H](CC(C)C)C(=O)N[C@@H](C)C(=O)NCC(=O)NCC(=O)N1CCC[C@H]1C(=O)N[C@@H](CO)C(=O)N[C@@H](CO)C(=O)NCC(=O)N[C@@H](C)C(=O)N1CCC[C@H]1C(=O)N1CCC[C@H]1C(=O)N1CCC[C@H]1C(=O)N[C@@H](CO)C(N)=O [HEC-PT108]	0.197 nM	0.864 nM	0.054 nM
CC[C@H](C)[C@H](NC(=O)[C@H](CC(C)C)NC(=O)[C@H](Cc1c[nH]c2ccccc12)NC(=O)[C@H](CCC(N)=O)NC(=O)[C@@H](NC(=O)[C@H](Cc1ccccc1)NC(=O)[C@H](C)NC(=O)[C@H](CCC(N)=O)NC(=O)[C@H](CCC(N)=O)NC(=O)[C@H](C)NC(=O)[C@H](CCCCNC(=O)COCCOCCNC(=O)CC[C@H](NC(=O)CCCCCCCCCCCCCCCCCCC(=O)O)C(=O)O)NC(=O)[C@H](CCC(=O)O)NC(=O)[C@H](CC(=O)O)NC(=O)[C@H](CC(C)C)NC(=O)[C@H](CC(C)C)NC(=O)[C@@H](NC(=O)[C@H](CO)NC(=O)[C@H](Cc1ccc(O)cc1)NC(=O)[C@H](CC(=O)O)NC(=O)[C@H](CO)NC(=O)[C@@H](NC(=O)[C@](C)(Cc1ccccc1F)NC(=O)[C@@H](NC(=O)CNC(=O)[C@H](CCC(N)=O)NC(=O)C(C)(C)NC(=O)[C@@H](N)Cc1ccc(O)cc1)[C@@H](C)O)[C@@H](C)O)[C@@H](C)CC)C(C)C)C(=O)N[C@@H](C)C(=O)NCC(=O)NCC(=O)N1CCC[C@H]1C(=O)N[C@@H](CO)C(=O)N[C@@H](CO)C(=O)NCC(=O)N[C@@H](C)C(=O)N1CCC[C@H]1C(=O)N1CCC[C@H]1C(=O)N1CCC[C@H]1C(=O)N[C@@H](CO)C(=O)O [HEC-PT92]	0.104 nM	1.85 nM	0.0779 nM
